ChEMBL document CHEMBL1201862, “PubChem BioAssay data set” (2004)
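Briefly, cells in 96-well plates were exposed to five compound concentrations for 48 h, and endpoints were estimated by linear interpolation. The concentration for 50% growth inhibition is given as GI50.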 Activity calls are given as the source filed them. Cut-off read from the data, not from the text of the source: active = GI50 up to about 1.1 µM and inactive = higher.

What was measured:
Assay in all cases: NCI anticancer screen, dose series, 48 h
OVCAR-5 = test system: OVCAR-5
NCI-H226 = test system: NCI-H226
NCI-H460 = test system: NCI-H460
SK-MEL-28 = test system: SK-MEL-28
A549 = test system: A549
UACC-257 = test system: UACC-257
A498 = test system: A498
U-251 = test system: U-251
TK-10 = test system: TK-10
HCT-15 = test system: HCT-15
SF-295 = test system: SF-295
NCI-H23 = test system: NCI-H23
OVCAR-4 = test system: OVCAR-4
SW-620 = test system: SW-620
IGROV-1 = test system: IGROV-1
EKVX = test system: EKVX
UO-31 = test system: UO-31
SNB-75 = test system: SNB-75
MCF7 = test system: MCF7

Row | Structure (SMILES) | GI50 (OVCAR-5) | GI50 (NCI-H226) | GI50 (NCI-H460) | GI50 (SK-MEL-28) | GI50 (A549) | GI50 (UACC-257) | GI50 (A498) | GI50 (U-251) | GI50 (TK-10) | GI50 (HCT-15) [µM] | GI50 (SF-295) | GI50 (NCI-H23) | GI50 (OVCAR-4) | GI50 (SW-620) | GI50 (IGROV-1) | GI50 (EKVX) | GI50 (UO-31) | GI50 (SNB-75) | GI50 (MCF7)
1 | CN1CCOC(c2ccccc2)O1 (stereo unspecified) | > 100 µM (inactive) | > 100 µM (inactive) | > 100 µM (inactive) | > 100 µM (inactive) | > 100 µM (inactive) | > 100 µM (inactive) | > 100 µM (inactive) | > 100 µM (inactive) | > 100 µM (inactive) | > 100 | > 100 µM (inactive) | > 100 µM (inactive) | > 100 µM (inactive) | > 100 µM (inactive) | > 100 µM (inactive) | > 100 µM (inactive) | > 100 µM (inactive) | > 100 µM (inactive) | 
2 | O=C1/C(=C/c2cccc([N+](=O)[O-])c2)N=C(c2ccccc2)N1c1nc2ccc(Sc3ccccc3)cc2[nH]1 | > 100 µM (inactive) | > 100 µM (inactive) | 25 µM (inactive) | 84.7 µM (inactive) | 55.2 µM (inactive) | 42 µM (inactive) | 87.7 µM (inactive) | 37.3 µM (inactive) | 71.4 µM (inactive) | 35.6 | 35.7 µM (inactive) | 46.6 µM (inactive) | 49.3 µM (inactive) | 37.2 µM (inactive) | 37.8 µM (inactive) | 62.8 µM (inactive) | 3.45 µM (inactive) | 52.4 µM (inactive) | 31.5 µM (inactive)
3 | CC(C)(C)c1ccc(OCCOCCOc2ccc(C(C)(C)C)cc2S(N)(=O)=O)c(S(N)(=O)=O)c1 | > 100 µM (inactive) | 40.7 µM (inactive) | 34.9 µM (inactive) | 94.6 µM (inactive) | 35.8 µM (inactive) | 45.6 µM (inactive) | 20.3 µM (inactive) | > 100 µM (inactive) | > 100 µM (inactive) | 45.6 | > 100 µM (inactive) | > 100 µM (inactive) | > 100 µM (inactive) | > 100 µM (inactive) | > 100 µM (inactive) | > 100 µM (inactive) | 5.85 µM (inactive) | > 100 µM (inactive) | 
4 | Cc1ccc(NC(=O)SCCC(=O)O)cc1 | > 100 µM (inactive) | > 100 µM (inactive) | > 100 µM (inactive) | > 100 µM (inactive) | > 100 µM (inactive) | > 100 µM (inactive) | > 100 µM (inactive) | > 100 µM (inactive) | > 100 µM (inactive) | > 100 | > 100 µM (inactive) | > 100 µM (inactive) | > 100 µM (inactive) | > 100 µM (inactive) | 47.4 µM (inactive) | > 100 µM (inactive) | > 100 µM (inactive) | 8.95 µM (inactive) | 
5 | CSc1nc2c(ncn2C2OC(CO)C(O)C(O)C2O)c(=O)n1C (stereo unspecified) | > 100 µM (inactive) | > 100 µM (inactive) | > 100 µM (inactive) | > 100 µM (inactive) | > 100 µM (inactive) | > 100 µM (inactive) | > 100 µM (inactive) | > 100 µM (inactive) |  | > 100 | > 100 µM (inactive) | > 100 µM (inactive) | > 100 µM (inactive) | > 100 µM (inactive) | > 100 µM (inactive) | > 100 µM (inactive) | > 100 µM (inactive) | > 100 µM (inactive) | > 100 µM (inactive)
6 | O=c1n(C2CCCCC2)c(=C(Cl)Cl)c(=C(Cl)Cl)n1C1CCCCC1 | > 100 µM (inactive) | > 100 µM (inactive) | > 100 µM (inactive) | > 100 µM (inactive) | > 100 µM (inactive) | 54.5 µM (inactive) | > 100 µM (inactive) | > 100 µM (inactive) | > 100 µM (inactive) | > 100 | > 100 µM (inactive) | > 100 µM (inactive) | > 100 µM (inactive) | > 100 µM (inactive) | > 100 µM (inactive) | > 100 µM (inactive) | > 100 µM (inactive) | > 100 µM (inactive) | 
7 | CC(C)=CC1CC(=[N+]=[N-])C(=O)C1(C)C (stereo unspecified) | > 100 µM (inactive) | > 100 µM (inactive) | 99.5 µM (inactive) | > 100 µM (inactive) | > 100 µM (inactive) | > 100 µM (inactive) | > 100 µM (inactive) | > 100 µM (inactive) | > 100 µM (inactive) | 86.5 | > 100 µM (inactive) | > 100 µM (inactive) | > 100 µM (inactive) | > 100 µM (inactive) | > 100 µM (inactive) | > 100 µM (inactive) | > 59 µM (inactive) | > 46.7 µM (inactive) | 
8 | COC(=O)c1c(-c2ccccc2)cc2c3cc(-c4ccccc4)c(C(=O)OC)n3c3ccccc3n12 | > 100 µM (inactive) | > 100 µM (inactive) | > 100 µM (inactive) | > 100 µM (inactive) | > 100 µM (inactive) | > 100 µM (inactive) | > 100 µM (inactive) | > 100 µM (inactive) | > 100 µM (inactive) | > 100 | > 100 µM (inactive) | > 100 µM (inactive) | 22.6 µM (inactive) | > 100 µM (inactive) | > 100 µM (inactive) | > 100 µM (inactive) | > 100 µM (inactive) | 20.1 µM (inactive) | 
9 | O=C(Nc1ccn(CCOC(=O)c2ccccc2)c(=O)n1)c1ccccc1 | > 100 µM (inactive) | > 100 µM (inactive) | > 100 µM (inactive) | > 100 µM (inactive) | > 100 µM (inactive) | > 100 µM (inactive) | > 100 µM (inactive) | > 100 µM (inactive) | > 100 µM (inactive) | > 100 | > 100 µM (inactive) |  | > 100 µM (inactive) | > 100 µM (inactive) | > 100 µM (inactive) | > 100 µM (inactive) | > 100 µM (inactive) | > 100 µM (inactive) | 
10 | Cc1ccc(S(=O)(=O)N(CCN)c2cc3c4c(c2)Oc2cccc5c2C4c2c(cccc2O3)O5)cc1 | 21.2 µM (inactive) | 12.4 µM (inactive) | > 100 µM (inactive) | 25.2 µM (inactive) | 25.7 µM (inactive) | 30.5 µM (inactive) | 55.3 µM (inactive) | 19.6 µM (inactive) | 48.9 µM (inactive) | 81.1 | 21.9 µM (inactive) | 36.1 µM (inactive) | > 10 µM (inactive) | 36.5 µM (inactive) | 11 µM (inactive) | 13.6 µM (inactive) | > 100 µM (inactive) | 12.6 µM (inactive) | 20.7 µM (inactive)
11 | O=NN1C(c2ccccc2)C2CCCC(C2=O)C1c1ccccc1 (stereo unspecified) | 37.2 µM (inactive) | 25.1 µM (inactive) | 22 µM (inactive) | 21.7 µM (inactive) | 34 µM (inactive) | 24 µM (inactive) | 34 µM (inactive) | 29.3 µM (inactive) |  | 29.3 | 30.8 µM (inactive) | 19.7 µM (inactive) | 23.9 µM (inactive) | 43.9 µM (inactive) | 40 µM (inactive) | 28.4 µM (inactive) | 22.9 µM (inactive) | 22.8 µM (inactive) | 20.7 µM (inactive)
12 | CN1CCOC1(C)CO (stereo unspecified) | > 100 µM (inactive) | > 100 µM (inactive) | > 100 µM (inactive) |  | > 100 µM (inactive) | > 100 µM (inactive) | > 100 µM (inactive) | > 100 µM (inactive) | > 100 µM (inactive) | > 100 | > 100 µM (inactive) | > 100 µM (inactive) | > 100 µM (inactive) | > 100 µM (inactive) | > 100 µM (inactive) | > 100 µM (inactive) | > 100 µM (inactive) | 28.6 µM (inactive) | > 100 µM (inactive)
13 | O=[N+]([O-])c1ccc(/C=C/c2ccc(/N=N/c3ccc(/C=C/c4ccc([N+](=O)[O-])cc4S(=O)(=O)O)c(S(=O)(=O)O)c3)cc2S(=O)(=O)O)c(S(=O)(=O)O)c1 | > 100 µM (inactive) | > 100 µM (inactive) | > 100 µM (inactive) | > 100 µM (inactive) | > 100 µM (inactive) | > 100 µM (inactive) | > 100 µM (inactive) | > 100 µM (inactive) |  | > 63.7 | > 100 µM (inactive) | > 100 µM (inactive) | > 56.8 µM (inactive) | > 100 µM (inactive) | > 100 µM (inactive) | > 100 µM (inactive) | > 100 µM (inactive) | 61.8 µM (inactive) | > 100 µM (inactive)
14 | CCOC(=O)C1C=C2O[C@@H]3OC4(CCCCC4)O[C@@H]3C2[C@H]2C(=O)C=CC(=O)[C@@]12C(=O)OC (stereo partly specified) | 17.1 µM (inactive) | 20.6 µM (inactive) | 14.6 µM (inactive) | 15.6 µM (inactive) | 14.5 µM (inactive) | 16.8 µM (inactive) | 18.3 µM (inactive) | 8.69 µM (inactive) | 13.6 µM (inactive) | 9.4 | 18.2 µM (inactive) | 16.3 µM (inactive) | 9.31 µM (inactive) | 12.8 µM (inactive) | 10.3 µM (inactive) | 16.6 µM (inactive) | 16.3 µM (inactive) | 19.4 µM (inactive) | 
15 | Nc1nc2[nH]c(=O)cnc2c(=O)[nH]1 [ISOXANTHOPTERIN] | > 99.1 µM (inactive) | > 125 µM (inactive) | > 125 µM (inactive) | > 125 µM (inactive) | > 125 µM (inactive) | > 125 µM (inactive) | > 125 µM (inactive) | > 125 µM (inactive) |  | > 78.9 | > 125 µM (inactive) | > 125 µM (inactive) | > 125 µM (inactive) | > 125 µM (inactive) | > 125 µM (inactive) | > 125 µM (inactive) | > 125 µM (inactive) | > 125 µM (inactive) | > 125 µM (inactive)
